# Source: US6653317B2, “Pyrimidine 3-oxide compounds for inducing/stimulating hair growth and/or retarding hair loss” (Societe l'Oreal S.A., priority 1998, dated 2003)
# Molecular target: T1, prostaglandin endo-peroxidesynthase (PGHS-1) (Ovis aries, UniProt P05979)
# T1 construct: isolated from sheep seminal glands; purchased Cayman Chemical 60100; host or cells: sheep seminal glands (tissue-derived)
# T1 sequence (P05979 25-600): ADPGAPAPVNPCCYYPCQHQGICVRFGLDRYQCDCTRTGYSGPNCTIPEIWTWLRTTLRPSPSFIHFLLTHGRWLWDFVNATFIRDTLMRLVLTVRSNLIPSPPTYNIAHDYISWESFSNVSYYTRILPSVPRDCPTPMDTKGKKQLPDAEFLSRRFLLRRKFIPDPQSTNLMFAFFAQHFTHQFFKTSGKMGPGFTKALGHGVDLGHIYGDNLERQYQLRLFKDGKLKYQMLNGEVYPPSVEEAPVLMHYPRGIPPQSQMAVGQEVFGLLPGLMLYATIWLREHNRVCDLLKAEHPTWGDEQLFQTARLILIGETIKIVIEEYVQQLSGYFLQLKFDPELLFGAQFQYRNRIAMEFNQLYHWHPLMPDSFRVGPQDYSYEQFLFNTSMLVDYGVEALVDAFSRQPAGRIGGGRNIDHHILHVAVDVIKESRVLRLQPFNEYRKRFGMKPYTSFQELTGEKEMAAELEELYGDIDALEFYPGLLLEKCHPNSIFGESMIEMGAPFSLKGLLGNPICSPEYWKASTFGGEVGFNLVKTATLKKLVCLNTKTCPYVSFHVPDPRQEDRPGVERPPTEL
# Experiment: Measurement of the prostaglandin-endoperoxide synthase (PGHS-1) activating power (oxygen consumption, Clark electrode)
# Type: biochemical, sheep
# Settings: test compound 0.5 mM; oxidation of arachidonic acid, 37° C., pH 8.00; % relative to the values obtained with the control
# Experimental: The amount of oxygen required for the oxidation of arachidonic acid was measured by means of the cyclooxygenase activity of the prostaglandin-endo-peroxide synthase, in the presence or absence of the test compound.
# The oxygen consumption measurements were taken using a Clark electrode connected to a YSI 5300 oxymeter marketed by Yellow Spring Instruments.
# These measurements were taken in an open chamber with constant stirring at a temperature of 37° C.
# If a graph recorder was used, the oxygen consumption measurement is expressed in the form of a curve, the maximum slope of which makes it possible to determine the initial rate of the reaction, and from which it is possible to calculate the period for which the initial reaction rate is maintained.
# The curve thus obtained, in the absence of any substance other than the ingredients required for the enzymatic reaction, provides the basal activity of the enzyme. The initial rate and the period for which this rate is maintained can be determined under these conditions in a reaction comprising only the enzyme and its substrate.
# The activity of the test compounds was measured under the same conditions, by adding the test compound to the reaction medium. The activity of the test compound with respect to cyclooxygenase was evaluated by means of the variation of the slope and the variation of the period for which the maximum rate was maintained.
# A solution of 0.1 M Tris and 5 mM EDTA at pH=8.00 (TE solution) was prepared.
# The substrate was formulated in the form of a stock solution of potassium arachidonate according to the supplier's procedure (Interchim, France).
# The test compounds were prepared in the form of a stock solution with a titre of 5 mM, in a water/alcohol mixture (80/20) and were tested with the same batch of enzyme.
# At t=0, 380 μl of TEA buffer preheated to 37° C. were introduced into the measuring chamber and maintained to equilibrate for at least one minute.
# At t=1, 300 units of enzyme (PGHS) were introduced.
# Recording was initiated, and the mixture was again permitted to stabilize for one minute. The recording obtained provided the reaction baseline.
# After a further minute, 10 μl of substrate were introduced and the oxygen consumption was recorded for 2 to 3 minutes.
# The initial reaction rate and the period for which this rate was maintained were thus determined.
# The experimental conditions were identical to those above, except that the TEA buffer preheated to 37° C. was replaced by an identical buffer containing the test compound at a concentration of 0.5 mM.
# The following results are expressed as a % relative to the values obtained with the control.
row,SMILES,Activation
1,"CCCCCCNc1ccnc(N)[n+]1[O-] [Example 1, 2-Amino-4-hexylaminopyrimidine 3-Oxide]",+37%
2,"CCCCCCCCNc1cc(OCCCC)nc(N)[n+]1[O-] [Example 17, 2-Amino-4-octylamino-6-butyloxypyrimidine 3-Oxide]",+8%
3,"CCCCCCCCNc1ccnc(N)[n+]1[O-] [Example 3, 2-Amino-4-octylaminopyrimidine 3-Oxide]",+14%
4,"CCCCCCCCCCCCNc1ccnc(N)[n+]1[O-] [Example 2, 2-Amino-4-dodecylaminopyrimidine 3-Oxide]",+11%
